# Assay results from US9409905B2, “Antibacterial compounds and methods for use” (PTC THERAPEUTICS, INC., priority 2011, dated 2016).
# Assays:
# [1] = system: Escherichia coli (E. coli) BAS849; experiment: Antibacterial activity, microbroth dilution MIC (Table 1); format: cell-based; details: microbroth dilution, super sensitive Gram-negative E. coli BAS849, read-out: MIC, BAS849
# Text: (§1) The antibacterial activity from a microbroth dilution method may be presented as the minimum inhibitory concentration (MIC in μg/mL). The MIC value is the lowest concentration of drug which prevents macroscopically visible growth under test conditions.
# (§2) Antibacterial activity of test compounds against the super sensitive Gram-negative Escherichia coli (E. coli) BAS849 bacterium, the control Gram-negative E. coli 25922 strain and the Gram-positive Staphylococcus aureus (S. aureus) 29213 bacterium are shown in Table 1.
# [2] = system: Staphylococcus aureus (S. aureus) 29213; experiment: as above; format: cell-based; details: microbroth dilution, Gram-positive S. aureus 29213, read-out: MIC, 29213
# Text: as §1, §2
# E. coli 25922 = experiment: as above; format: cell-based, Escherichia coli; details: Escherichia coli; microbroth dilution; control Gram-negative E. coli 25922 strain; read-out: MIC, 25922
# Text: as §1, §2
# E. coli LZ3111 = experiment: Antibacterial activity, MIC, quinolone resistant strain (Table 2); format: cell-based; details: Escherichia coli, LZ3111, read-out: MIC LZ3111
# Text: as §1
# Mutations in these regions are known to confer a high level resistance to the quinolone class of antibiotics.
Compound,MIC [1],MIC [2],MIC (E. coli 25922),MIC (E. coli LZ3111)
"CCc1cc(C(=O)O)c(=O)[nH]c1-c1ccc2c(c1)cc(CN[C@H](CC)c1ccccc1)n2C [Cpd 118, (R)-5-ethyl-6-(1-methyl-2-((1-phenylpropylamino)methyl)-1H-indol-5-yl)-2-oxo-1,2-dihydropyridine-3-carboxylic acid]",< 1 µg/mL,1 to 3.5 µg/mL,1 to 3.5 µg/mL,12.5 to 150 µg/mL
"CCc1cc(C(=O)O)c(=O)[nH]c1-c1ccc2c(c1)cc(CN1C[C@H]3CCC[C@@H](N(C)Cc4ccccc4)[C@H]3C1)n2C [Cpd 146, 6-(2-(((3aR,4R,7aS)-4-(benzyl(methyl)amino)-1H-isoindol-2(3H,3aH,4H,5H,6H,7H,7aH)-yl)methyl)-1-methyl-1H-indol-5-yl)-5-ethyl-2-oxo-1,2-dihydropyridine-3-carboxylic acid]",< 1 µg/mL,12.5 to 150 µg/mL,1 to 3.5 µg/mL,12.5 to 150 µg/mL
"CCc1cc(C(=O)O)c(=O)[nH]c1-c1ccc2c(c1)cc(CN1CC3CC1CN3)n2C (centres unmarked) [Cpd 142, 6-(2-(2,5-diazabicyclo[2.2.1]heptan-2-ylmethyl)-1-methyl-1H-indol-5-yl)-5-ethyl-2-oxo-1,2-dihydropyridine-3-carboxylic acid]",3.5 to 12.5 µg/mL,12.5 to 150 µg/mL,12.5 to 150 µg/mL,12.5 to 150 µg/mL
"Cn1c(CNCC2CC2)cc2cc(-c3[nH]c(=O)c(C(=O)O)c(O)c3-c3ccc(F)cc3)ccc21 [Cpd 311, 6-(2-((cyclopropylmethylamino)methyl)-1-methyl-1H-indol-5-yl)-5-(4-fluorophenyl)-4-hydroxy-2-oxo-1,2-dihydropyridine-3-carboxylic acid]",< 1 µg/mL,12.5 to 150 µg/mL,1 to 3.5 µg/mL,12.5 to 150 µg/mL
"CCc1cc(C(=O)O)c(=O)[nH]c1-c1cc2cc(CN3CCCC3)n(C)c2cc1C [Cpd 89, 6-(1,6-dimethyl-2-(pyrrolidin-1-ylmethyl)-1H-indol-5-yl)-5-ethyl-2-oxo-1,2-dihydropyridine-3-carboxylic acid]",12.5 to 150 µg/mL,12.5 to 150 µg/mL,12.5 to 150 µg/mL,12.5 to 150 µg/mL
"CCc1c(-c2ccc3c(c2)cc(CN(C)Cc2ccccc2)n3C)[nH]c(=O)c(C(=O)O)c1O.Cl [Cpd 218, 6-(2-((benzyl(methyl)amino)methyl)-1-methyl-1H-indol-5-yl)-5-ethyl-4-hydroxy-2-oxo-1,2-dihydropyridine-3-carboxylic acid hydrochloride]",< 1 µg/mL,3.5 to 12.5 µg/mL,12.5 to 150 µg/mL,12.5 to 150 µg/mL
"CCc1c(-c2ccc3c(c2)cc(CN2CC(C(=O)O)C2)n3C)[nH]c(=O)c(C(=O)O)c1O [Cpd 269, 6-(2-((3-carboxyazetidin-1-yl)methyl)-1-methyl-1H-indol-5-yl)-5-ethyl-4-hydroxy-2-oxo-1,2-dihydropyridine-3-carboxylic acid]",3.5 to 12.5 µg/mL,12.5 to 150 µg/mL,12.5 to 150 µg/mL,12.5 to 150 µg/mL
"CCc1cc(C(=O)O)c(=O)[nH]c1-c1ccc2c(c1)cc(CN[C@H](C)c1ccccc1)n2C [Cpd 116, (R)-5-ethyl-6-(1-methyl-2-((1-phenylethylamino)methyl)-1H-indol-5-yl)-2-oxo-1,2-dihydropyridine-3-carboxylic acid]",< 1 µg/mL,1 to 3.5 µg/mL,< 1 µg/mL,12.5 to 150 µg/mL
"CCc1cc(C(=O)O)c(=O)[nH]c1-c1ccc2c(cc(CN3CCCC3)n2C)n1 [Cpd 84, 5-ethyl-6-(1-methyl-2-(pyrrolidin-1-ylmethyl)-1H-pyrrolo[3,2-b]pyridin-5-yl)-2-oxo-1,2-dihydropyridine-3-carboxylic acid]",1 to 3.5 µg/mL,12.5 to 150 µg/mL,3.5 to 12.5 µg/mL,12.5 to 150 µg/mL
"CCc1cc(C(=O)O)c(=O)[nH]c1-c1ccc2c(c1)cc([C@@H]1CCCN1)n2C.Cl [Cpd 69, (S)-5-ethyl-6-(1-methyl-2-(pyrrolidin-2-yl)-1H-indol-5-yl)-2-oxo-1,2-dihydropyridine-3-carboxylic acid hydrochloride]",< 1 µg/mL,12.5 to 150 µg/mL,1 to 3.5 µg/mL,12.5 to 150 µg/mL
"CCc1cc(C(=O)O)c(=O)[nH]c1-c1cc(F)c2c(c1)cc(CN1CCCCC1)n2C [Cpd 102, 5-ethyl-6-(7-fluoro-1-methyl-2-(piperidin-1-ylmethyl)-1H-indol-5-yl)-2-oxo-1,2-dihydropyridine-3-carboxylic acid]",< 1 µg/mL,12.5 to 150 µg/mL,3.5 to 12.5 µg/mL,12.5 to 150 µg/mL
"CCc1c(-c2ccc3c(ccn3CC3OCCO3)c2)[nH]c(=O)c(C(=O)O)c1O [Cpd 26, 6-(1-((1,3-dioxolan-2-yl)methyl)-1H-indol-5-yl)-5-ethyl-4-hydroxy-2-oxo-1,2-dihydropyridine-3-carboxylic acid]",< 1 µg/mL,3.5 to 12.5 µg/mL,12.5 to 150 µg/mL,–
"CCc1cc(C(=O)O)c(=O)[nH]c1-c1ccc2ncccc2c1 [Cpd 19, 5-ethyl-2-oxo-6-(quinolin-6-yl)-1,2-dihydropyridine-3-carboxylic acid]",12.5 to 150 µg/mL,12.5 to 150 µg/mL,12.5 to 150 µg/mL,–
"CCc1cc(C(=O)O)c(=O)[nH]c1-c1ccc2c(c1)c(C)c(C)n2C [Cpd 29, 5-ethyl-2-oxo-6-(1,2,3-trimethyl-1H-indol-5-yl)-1,2-dihydropyridine-3-carboxylic acid]",< 1 µg/mL,12.5 to 150 µg/mL,12.5 to 150 µg/mL,–
"CCc1cc(C(=O)O)c(=O)[nH]c1-c1cn(C)c2ccccc12 [Cpd 13, 5-ethyl-6-(1-methyl-1H-indol-3-yl)-2-oxo-1,2-dihydropyridine-3-carboxylic acid]",3.5 to 12.5 µg/mL,12.5 to 150 µg/mL,12.5 to 150 µg/mL,–
"CCc1cc(C(=O)O)c(=O)[nH]c1-c1ccc2nc(N(C)C)oc2c1 [Cpd 17, 6-(2-(dimethylamino)benzo[d]oxazol-6-yl)-5-ethyl-2-oxo-1,2-dihydropyridine-3-carboxylic acid]",3.5 to 12.5 µg/mL,1 to 3.5 µg/mL,12.5 to 150 µg/mL,–
"CCc1cc(C(=O)O)c(=O)[nH]c1-c1ccc2c(c1)c1c(n2C)CCCC1 [Cpd 27, 5-ethyl-6-(9-methyl-2,3,4,9-tetrahydro-1H-carbazol-6-yl)-2-oxo-1,2-dihydropyridine-3-carboxylic acid]",< 1 µg/mL,3.5 to 12.5 µg/mL,12.5 to 150 µg/mL,–
"CCc1c(-c2ccc3nc(-c4ccccc4)oc3c2)[nH]c(=O)c(C(=O)O)c1O [Cpd 16, 5-ethyl-4-hydroxy-2-oxo-6-(2-phenylbenzo[d]oxazol-6-yl)-1,2-dihydropyridine-3-carboxylic acid]",3.5 to 12.5 µg/mL,1 to 3.5 µg/mL,12.5 to 150 µg/mL,–
"CCc1cc(C(=O)O)c(=O)[nH]c1-c1ccc2c(ccn2CC2OCCO2)c1 [Cpd 25, 6-(1-((1,3-dioxolan-2-yl)methyl)-1H-indol-5-yl)-5-ethyl-2-oxo-1,2-dihydropyridine-3-carboxylic acid]",< 1 µg/mL,12.5 to 150 µg/mL,12.5 to 150 µg/mL,–
"CC(C)c1c(-c2ccc3c(ccn3C)c2)[nH]c(=O)c(C(=O)O)c1O [Cpd 34, 4-hydroxy-5-isopropyl-6-(1-methyl-1H-indol-5-yl)-2-oxo-1,2-dihydropyridine-3-carboxylic acid]",< 1 µg/mL,1 to 3.5 µg/mL,3.5 to 12.5 µg/mL,–
"CCc1cc(C(=O)O)c(=O)[nH]c1-c1ccc2nc(-c3ccccc3)oc2c1 [Cpd 15, 5-ethyl-2-oxo-6-(2-phenylbenzo[d]oxazol-6-yl)-1,2-dihydropyridine-3-carboxylic acid]",1 to 3.5 µg/mL,12.5 to 150 µg/mL,12.5 to 150 µg/mL,–
